Experimental data as given in US6995153B2, “Fused bicyclic pyrimidine derivatives” (Kyorin Pharmaceutical. Co., Ltd., priority 2002, dated 2006).

What was measured:
[1] = molecular target: T1, NK1 receptor (Cavia porcellus, UniProt P30547); test: Test for NK1 receptor antagonist: substance P concentration-response in isolated guinea pig ileum, Schild analysis; settings: against substance P, 10 min pretreatment, method of Schild
T1 construct: from tissue; host or cells: isolated guinea pig ileum
T1 sequence (P30547 whole entry): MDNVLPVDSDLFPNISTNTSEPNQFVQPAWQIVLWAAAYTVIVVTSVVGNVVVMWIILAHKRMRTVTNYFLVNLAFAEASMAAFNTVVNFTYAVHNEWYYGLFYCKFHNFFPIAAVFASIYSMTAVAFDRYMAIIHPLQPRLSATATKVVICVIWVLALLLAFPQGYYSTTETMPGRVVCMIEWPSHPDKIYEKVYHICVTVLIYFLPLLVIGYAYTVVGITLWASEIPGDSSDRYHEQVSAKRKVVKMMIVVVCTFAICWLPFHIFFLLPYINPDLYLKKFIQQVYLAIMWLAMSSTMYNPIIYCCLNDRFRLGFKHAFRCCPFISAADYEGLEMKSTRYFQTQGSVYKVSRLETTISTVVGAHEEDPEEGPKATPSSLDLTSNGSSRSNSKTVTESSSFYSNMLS
Method: (1) Test for NK1 Receptor Antagonist
The method used was according to the method proposed by S. Dion et al.(Dion et al., Life Sciences 41(1987): 2269), to which minor modifications were made.
Guinea pigs were stunned by a blow on the head and were exsanguinated from the carotid artery and ilea were isolated. The ileum was mounted in an organ bath containing Tyrode's solution which was maintained at 32° C., and gased with 95% O2 and 5% CO2. The ileum was subjected to a resting tension of 1-gram and allowed to equilibrate for 20 minutes before the experiment was started. As a control, a concentration-response curve for substance P in the absence of any of test compounds was used. The NK1 receptor antagonist activity of each test compound was determined by a concentration-response curve obtained by pretreating at least three concentrations of the test compound for 10 minutes and subsequently applying substance P in a cumulative manner. The Kb values were determined according to the method of Schild and the results are shown in Table 1 (Schild Brit. J. Pharmacol. 14(1959): 49).
The composition of the Tyrode's solution was as follows: NaCl=136.9, KCl=2.7, CaCl2.2H2O=2.5, MgCl2.6H2O=1.0, NaH2PO4.2H2O=0.4, NaHCO3=11.9, glucose=11.1(mmol/L)

[2] = system: Guinea pigs; test: Cystometry test on guinea pigs with cut spinal cord (effective bladder capacity); type: in vivo; settings: guinea pig
Text: (2) Cystometry Test on Guinea Pigs
The method used was according to the method proposed by J S. Peterson et al. (Peterson J S. et al., J. Pharmacol. Methods 21(1989): 231), to which minor modifications were made.
Guinea pigs were anesthetized with halothane and the tenth thoracic spinal cord was cut in each animal. Subsequently, both ureters were ligated and were cut on the kidney-side. Polyethylene catheters were inserted into the bladder to provide an injection pathway for physiological saline and a pathway for the measurement of intravesical pressure. Each animal was restricted in a Ballman cage and was left for more than 2 hours. Subsequently, room-temperature saline was injected through the bladder catheter into the bladder at a rate of 6 mL/hr to conduct a cystometry test. Once the effective bladder capacity was stabilized, a test compound was intravenously administered into the jugular vein. The effective bladder capacity is defined as the volume of saline injected from one urination to the next. The effect of each test compound was determined as the increase in the average bladder volume, which was determined based on the average bladder volume measured 30 minutes prior to the administration of the test compound and the average bladder volume measured every 30 minutes after the administration of the test compound.

| SMILES | Kb [1] | other results |
| --- | --- | --- |
| Cc1ccccc1-c1nc(N2CCC(NS(C)(=O)=O)CC2)nc2c1C(=O)N(Cc1cc(C(F)(F)F)cc(C(F)(F)F)c1)CCCO2 [Example 38, 5-[3,5-bis(trifluoromethyl)benzyl]-9-[4-(methylsulfonylamino)piperidine-1-yl]-7-(2-methylphenyl)-6-oxo-2,3,4,5-tetrahydro-6H-pyrimido[4,5-b][1,5]oxazocine] | 0.214 nM |  |
| CC(=O)NC1CCN(c2nc3c(c(-c4ccccc4C)n2)C(=O)N(Cc2cc(C(F)(F)F)cc(C(F)(F)F)c2)CCCO3)C1 (centres unmarked) [Example 27, 5-[3,5-bis(trifluoromethyl)benzyl]-9-[3-(acetylamino)pyrrolidine-1-yl]-7-(2-methylphenyl)-6-oxo-2,3,4,5-tetrahydro-6H-pyrimido[4,5-b][1,5]oxazocine] | 0.44 nM |  |
| O=C1c2c(nc(N3CCOCC3)nc2-c2ccccc2F)OCCCN1Cc1cc(C(F)(F)F)cc(C(F)(F)F)c1 [Example 2, 5-[3,5-bis(trifluoromethyl)benzyl]-7-(2-fluorophenyl)-9-(morpholine-4-yl)-6-oxo-2,3,4,5-tetrahydro-6H-pyrimido[4,5-b][1,5]oxazocine] | 0.294 nM |  |
| Cc1ccc(-c2c3n(c(=O)c4ncccc24)CC[C@@H](C)CN(Cc2cc(C(F)(F)F)cc(C(F)(F)F)c2)C3=O)cc1 [TAK-637, reference compound] | 0.269 nM | Increase in bladder capacity (%) ([2]; 0.3 mg/kg i.v.): 12.0%; Increase in bladder capacity (%) ([2]; 1 mg/kg i.v.): 23.8%; Increase in bladder capacity (%) ([2]; 3 mg/kg i.v.): 20.5% |
| Cc1ccccc1-c1nc(-n2ccnc2)nc2c1C(=O)N(Cc1cc(C(F)(F)F)cc(C(F)(F)F)c1)CCCO2 [Example 18, 5-[3,5-bis(trifluoromethyl)benzyl]-9-(imidazole-1-yl)-7-(2-methylphenyl)-6-oxo-2,3,4,5-tetrahydro-6H-pyrimido[4,5-b][1,5]oxazocine] | 0.459 nM |  |
| Cc1ccccc1-c1nc(N2CCC(N(C)C)C2)nc2c1C(=O)N(Cc1cc(C(F)(F)F)cc(C(F)(F)F)c1)CCCO2 (centres unmarked) [Example 25, 5-[3,5-bis(trifluoromethyl)benzyl]-9-[3-(dimethylamino)pyrrolidine-1-yl]-7-(2-methylphenyl)-6-oxo-2,3,4,5-tetrahydro-6H-pyrimido[4,5-b][1,5]oxazocine] | 0.427 nM |  |
| COc1ccccc1-c1nc(N2CCS(=O)(=O)CC2)nc2c1C(=O)N(Cc1cc(C(F)(F)F)cc(C(F)(F)F)c1)CCCO2 [Example 43, 5-[3,5-bis(trifluoromethyl)benzyl]-9-(1,1-dioxothiomorpholine-4-yl)-7-(2-methoxyphenyl)-6-oxo-2,3,4,5-tetrahydro-6H-pyrimido[4,5-b][1,5]oxazocine] | 0.123 nM |  |
| O=C1c2c(nc(N3CCC(N4CCCC4)CC3)nc2-c2ccc(F)cc2)OCCCN1Cc1cc(C(F)(F)F)cc(C(F)(F)F)c1 [Example 13, 5-[3,5-bis(trifluoromethyl)benzyl]-7-(4-fluorophenyl)-6-oxo-9-[4-(pyrrolidine-1-yl)piperidine-1-yl]-2,3,4,5-tetrahydro-6H-pyrimido[4,5-b][1,5]oxazocine] | 0.217 nM |  |

The next lines start with results.

| Kb [1] | SMILES | other results |
| --- | --- | --- |
| 0.308 nM | CC(=O)N1CCCN(c2nc3c(c(-c4ccccc4C)n2)C(=O)N(Cc2cc(C(F)(F)F)cc(C(F)(F)F)c2)CCCO3)CC1 [Example 41, 9-(4-acetylhomopiperazine-1-yl)-5-[3,5-bis(trifluoromethyl)benzyl]-7-(2-methylphenyl)-6-oxo-2,3,4,5-tetrahydro-6H-pyrimido[4,5-b][1,5]oxazocine] | Increase in bladder capacity (%) ([2]; 0.3 mg/kg i.v.): 36.8% |
| 0.151 nM | CC(=O)NC1CCN(c2nc3c(c(-c4ccccc4C)n2)C(=O)N(Cc2cc(C(F)(F)F)cc(C(F)(F)F)c2)CCCO3)CC1 [Example 37, 9-[4-(acetylamino)piperidine-1-yl]-5-[3,5-bis(trifluoromethyl)benzyl]-7-(2-methylphenyl)-6-oxo-2,3,4,5-tetrahydro-6H-pyrimido[4,5-b][1,5]oxazocine] |  |
| 0.0794 nM | Cc1ccccc1-c1nc(N2CCS(=O)(=O)CC2)nc2c1C(=O)N(Cc1cc(C(F)(F)F)cc(C(F)(F)F)c1)CCCO2 [Example 20, 5-[3,5-bis(trifluoromethyl)benzyl]-9-(1,1-dioxothiomorpholine-4-yl)-7-(2-methylphenyl)-6-oxo-2,3,4,5-tetrahydro-6H-pyrimido[4,5-b][1,5]oxazocine] | Increase in bladder capacity (%) ([2]; 0.3 mg/kg i.v.): 40.4% |
| 0.105 nM | CC(=O)N1CCN(c2nc3c(c(-c4ccccc4C)n2)C(=O)N(Cc2cc(C(F)(F)F)cc(C(F)(F)F)c2)CCCO3)CC1 [Example 16, 9-(4-acetylpiperazine-1-yl)-5-[3,5-bis(trifluoromethyl)benzyl]-7-(2-methylphenyl)-6-oxo-2,3,4,5-tetrahydro-6H-pyrimido[4,5-b][1,5]oxazocine] | Increase in bladder capacity (%) ([2]; 0.3 mg/kg i.v.): 59.4%; melting point: 160.5 to 163.5 °C |
| 0.798 nM | Cc1ccccc1-c1nc(N2CCN(c3ncccn3)CC2)nc2c1C(=O)N(Cc1cc(C(F)(F)F)cc(C(F)(F)F)c1)CCCO2 [Example 14, 5-[3,5-bis(trifluoromethyl)benzyl]-7-(2-methylphenyl)-6-oxo-9-[4-(pyrimidine-2-yl)piperazine-1-yl]-2,3,4,5-tetrahydro-6H-pyrimido[4,5-b][1,5]oxazocine] |  |
| 0.00631 nM | Cc1ccccc1-c1nc(N2CCN(C)CC2)nc2c1C(=O)N(Cc1cc(C(F)(F)F)cc(C(F)(F)F)c1)CCCO2 [Example 44, 5-[3,5-bis(trifluoromethyl)benzyl]-7-(2-methylphenyl)-9-(4-methylpiperazine-1-yl)-6-oxo-2,3,4,5-tetrahydro-6H-pyrimido[4,5-b][1,5]oxazocine] |  |
| 0.1 nM | COc1ccccc1-c1nc(N2CCN(C(C)=O)CC2)nc2c1C(=O)N(Cc1cc(C(F)(F)F)cc(C(F)(F)F)c1)CCCO2 [Example 29, 9-(4-acetylpiperazine-1-yl)-5-[3,5-bis(trifluoromethyl)benzyl]-7-(2-methoxyphenyl)-6-oxo-2,3,4,5-tetrahydro-6H-pyrimido[4,5-b][1,5]oxazocine] |  |
| 0.398 nM | Cc1ccccc1-c1nc(N2CCCN(C)CC2)nc2c1C(=O)N(Cc1cc(C(F)(F)F)cc(C(F)(F)F)c1)CCCO2 [Example 26, 5-[3,5-bis(trifluoromethyl)benzyl]-9-(4-methylhomopiperazine-1-yl)-7-(2-methylphenyl)-6-oxo-2,3,4,5-tetrahydro-6H-pyrimido[4,5-b][1,5]oxazocine] |  |
